Read-outs that look alike come from different tables or passages of the source. Blank lines part the entries; values can stand above or below the molecule they belong to.
Key:
angiogenin (ANG) = angiogenin (ANG) (Homo sapiens, UniProt P03950); test: Inhibition of ANG ribonucleolytic activity, HPLC assay of oligonucleotide cleavage; assay type: biochemical
Experimental: Reaction mixtures with and without test compounds were chromatographed on a Mono Q anion-exchange column with an NaCl gradient in 10 mM Tris, pH 8. […] This information was used to calculate kcat/Km values, which were then fitted to the equation (kcat/Km)i=(kcat/Km)0/[…], where (kcat/Km)i and (kcat/Km)0 are defined as the values in the presence and absence of inhibitor, respectively, and [I] is defined as the inhibitor concentration. At least four concentrations (in a range of about 10 μM-above 100 μM) were used in the final hit confirmation in order to distinguish all true hits.
Chemical structures of selected compounds are shown in these Tables and in FIGS. 4 and 5.

MMLV RT RNase H = MMLV RT RNase H (Moloney murine leukemia virus, UniProt P03355); test: Inhibition of RT-based RNase H cleavage of RNA:DNA hybrid; assay type: biochemical; conditions: for % Cleavage: no inhibitor: 36%, 5 min at 37 C
Experimental: As described above, Chembridge compound #467929 offered protection from several RNA-specific endonucleolytic activities. […] A 20-mer DNA oligonucleotide was asymmetrically annealed to a 1500 base synthetic RNA to create an RNA:DNA duplex substrate for RNase H. Reactions were initiated with 10 U of MMLV RT in 1×RT buffer (50 mM TrisCl pH 8.3, 75 mM KCl, 3 mM MgCl2, 5 mM DTT) containing 500 ng/ul RNA:DNA hybrid. All reactions contained 5% DMSO either with or without the small molecule RNase inhibitor. Samples were incubated for 5 min at 37 C, and quenched with EDTA. Products were resolved on an RNA LabChip. Cleavage products were observed as two equally represented RNA species of 1000 and 500 bases. Product length and yield were determined using the 2100 BioAnalyzer software (Agilent). Table 4 details the level of inhibition of MMLV RT RNase H that is observed as a function of the concentration of compounds 467929 and 227726.

[1] = molecular target: T1, bovine pancreatic RNase A (Bos taurus, UniProt P61823); test: Inhibition of bovine pancreatic RNase A (specificity versus ANG); assay type: biochemical
T1 sequence (P61823 27-150): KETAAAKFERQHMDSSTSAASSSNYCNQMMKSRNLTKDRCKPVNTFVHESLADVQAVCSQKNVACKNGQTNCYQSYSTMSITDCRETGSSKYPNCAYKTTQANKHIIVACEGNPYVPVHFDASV

[2] = test system: PC-3 human prostate tumor cells; test: PC-3 tumor formation in athymic mice; assay type: in vivo; conditions: PC-3 s.c.
Experimental: Compound NCI-65828 was identified by HTS as an ANG inhibitor. […] Each compound was administered 6 times per week, in doses of 40 μg, 8 μg, and 1.6 μg (about 2, 0.4 and 0.08 mg/kg/day). The compound was dissolved in DMSO, and control mice received a corresponding volume of DMSO (4%, 0.8% and 0%). Another control group received saline.
Another in vivo mouse experiment was performed using 8 or 12 mice per group. The experimental group was administered PC-3 cells and NCI-65828, as intraperitoneal injections (40 μg and 8 μg). A control group of mice was administered PC-3 cells and a related compound that was known to be ineffective at inhibiting ANG enzymatic activity. Mice were evaluated for number of animals that remained tumor free as a function of time, at intervals of 3 days from days 14-42 following the initial injection.
Concentrated stocks of inhibitors were prepared in dimethylsulfoxide (DMSO), and the inhibitors were diluted into phosphate-buffered saline (PBS); the final DMSO concentration for the 40 μg and 20 μg doses was 4% in PBS, and that for the 8 μg and 4 μg doses was 0.8% in PBS. Statistical significance (P values) was determined from Mantel-Cox tests performed on Kaplan-Meier survivor functions. Results for inhibitor-treated groups were compared to results obtained with the appropriate DMSO control groups. A positive control group of mice, administered antisense DNA specific for the ANG gene in PBS (no DMSO), was also included. ANG antisense DNA was shown previously to be extremely effective in this tumor model.
Tumor cells from a human prostate cancer (PC-3) were injected subcutaneously (s.c.) in the shoulder of 6-7 week old athymic (nude) mice on day 0. Treatment with the indicated amount of inhibitor (in 100 μL) was given subcutaneously in the same area as the cells, 6 times per week, with the first injection 5-10 minutes prior to injection of the cells. The total dosage was 0.4 mg to 2 mg per kg per day.

E. coli RNase I = E. coli RNase I (Escherichia coli, UniProt P21338); test: Intactness of total RNA challenged with purified RNase; assay type: biochemical; conditions: 100 uM inhibitor; E. coli RNase I 7 ng/ul; 100 ng/ul mouse liver total RNA, 23° C., 4 min
[3] = 20 mM Hepes, 100 mM NaCl, pH 7.0, 37° C., read-out: Ki for inhibition of the ribonucleolytic activity of angiogenin
[4] = inhibition of ANG-catalyzed cleavage of an RNA oligonucleotide, 20 mM Hepes, 100 mM NaCl, 37° C., read-out: KI

Chain of angiogenin (ANG) (P03950 25-147): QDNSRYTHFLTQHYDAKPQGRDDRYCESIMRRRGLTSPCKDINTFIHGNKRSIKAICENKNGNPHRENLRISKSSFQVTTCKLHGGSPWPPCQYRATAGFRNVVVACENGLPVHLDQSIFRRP
Chain of E. coli RNase I (P21338 24-268): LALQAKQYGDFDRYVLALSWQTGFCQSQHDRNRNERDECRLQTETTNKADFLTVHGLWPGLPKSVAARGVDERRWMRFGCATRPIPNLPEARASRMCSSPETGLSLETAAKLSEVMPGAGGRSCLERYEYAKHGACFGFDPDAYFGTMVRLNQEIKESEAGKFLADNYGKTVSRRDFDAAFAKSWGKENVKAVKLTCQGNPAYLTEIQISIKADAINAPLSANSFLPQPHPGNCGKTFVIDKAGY

Molecule: O=C(Nc1ccc(Cc2ccc(NC(=O)c3cccc([N+](=O)[O-])c3)c(C(=O)O)c2)cc1C(=O)O)c1cccc([N+](=O)[O-])c1 [CB-467929]
Ki (angiogenin (ANG); [3]): 24 µM
IC50 (MMLV RT RNase H): ~20 µM
% Cleavage (MMLV RT RNase H; inhibitor 8 μM): 42%
% Cleavage (MMLV RT RNase H; inhibitor 40 μM): 8%

Molecule: O=[N+]([O-])c1cc(/N=N/c2c(O)ccc3cc(S(=O)(=O)O)ccc23)c(O)c([N+](=O)[O-])c1 [NCI-65820]
Ki (angiogenin (ANG); read-out: KI): 25 µM
Tighter binding to ANG than to RNase A [1]: 1.5 fold

Molecule: O=C(N/N=C(\c1ccccc1)c1ccncc1)c1ccccc1 [NCI-227726, N′-[phenyl(4-pyridinyl)methylene] benzohydrazide, reference compound]
% Cleavage (MMLV RT RNase H; inhibitor 100 μM): 45%
% Cleavage (MMLV RT RNase H; inhibitor 524 μM): 43%
% Cleavage (MMLV RT RNase H; inhibitor 1000 μM): 47%

Molecule: O=S(=O)(O)c1cc(S(=O)(=O)O)c2c(/N=N/c3ccccc3)c(O)ccc2c1 [Orange G]
Ki (angiogenin (ANG); read-out: KI): 83 µM

Molecule: Nc1ccc(/N=N/c2ccc(-c3ccc(O)cc3)cc2)c2ccc(S(=O)(=O)O)cc12 [Tyger-65828]
Ki for inhibition of the ribonucleolytic activity of angiogenin (angiogenin (ANG); 20 mM Hepes, 100 mM NaCl, pH 7.0, 37° C.): indistinguishable from that of the NCI compound
Percentage of Tumor-Bearing Mice, day 14 ([2]; 4 μg s.c. 6 times per week): 8%
Percentage of Tumor-Bearing Mice, day 17 ([2]; 4 μg s.c. 6 times per week): 42%
Percentage of Tumor-Bearing Mice, day 21 ([2]; 4 μg s.c. 6 times per week): 67%
Percentage of Tumor-Bearing Mice, day 24 ([2]; 4 μg s.c. 6 times per week): 100%
Percentage of Tumor-Bearing Mice, day 32 ([2]; 4 μg s.c. 6 times per week): 100%
Percentage of Tumor-Bearing Mice, day 35 ([2]; 4 μg s.c. 6 times per week): 100%
Percentage of Tumor-Bearing Mice, day 14 ([2]; 8 μg s.c. 6 times per week): 0%
Percentage of Tumor-Bearing Mice, day 17 ([2]; 8 μg s.c. 6 times per week): 45%
Percentage of Tumor-Bearing Mice, day 21 ([2]; 8 μg s.c. 6 times per week): 55%
Percentage of Tumor-Bearing Mice, day 24 ([2]; 8 μg s.c. 6 times per week): 82%
Percentage of Tumor-Bearing Mice, day 32 ([2]; 8 μg s.c. 6 times per week): 91%
Percentage of Tumor-Bearing Mice, day 35 ([2]; 8 μg s.c. 6 times per week): 100%
Percentage of Tumor-Bearing Mice, day 14 ([2]; 20 μg s.c. 6 times per week): 0%
Percentage of Tumor-Bearing Mice, day 17 ([2]; 20 μg s.c. 6 times per week): 25%
Percentage of Tumor-Bearing Mice, day 21 ([2]; 20 μg s.c. 6 times per week): 33%
Percentage of Tumor-Bearing Mice, day 24 ([2]; 20 μg s.c. 6 times per week): 92%
Percentage of Tumor-Bearing Mice, day 32 ([2]; 20 μg s.c. 6 times per week): 100%
Percentage of Tumor-Bearing Mice, day 35 ([2]; 20 μg s.c. 6 times per week): 100%
Percentage of Tumor-Bearing Mice, day 14 ([2]; 40 μg s.c. 6 times per week): 8%
Percentage of Tumor-Bearing Mice, day 17 ([2]; 40 μg s.c. 6 times per week): 33%
Percentage of Tumor-Bearing Mice, day 21 ([2]; 40 μg s.c. 6 times per week): 33%
Percentage of Tumor-Bearing Mice, day 24 ([2]; 40 μg s.c. 6 times per week): 83%
Percentage of Tumor-Bearing Mice, day 32 ([2]; 40 μg s.c. 6 times per week): 92%
Percentage of Tumor-Bearing Mice, day 35 ([2]; 40 μg s.c. 6 times per week): 100%
Time of appearance of tumors (Example 3, Table 1) ([2]; treatment s.c. 6 times per week): delayed considerably the time of appearance of tumors

Molecule: CC(=O)Nc1ccc(/N=N/c2c(N)ccc3cc(S(=O)(=O)O)cc(O)c23)c(S(=O)(=O)O)c1 [acid red 37]
Ki (angiogenin (ANG); read-out: KI): 70 µM

Molecule: CC(=O)Nc1ccc(N=Nc2c(S(=O)(=O)O)cc3cc(S(=O)(=O)O)cc(NC(C)=O)c3c2O)cc1 [acid violet 7]
Ki (angiogenin (ANG); [4]): 71 µM

Molecule: Nc1ccc2cc(S(=O)(=O)O)cc(O)c2c1/N=N/c1ccc(-c2ccc(/N=N/c3ccc(O)c(C(=O)O)c3)cc2)cc1 [direct red 1]
Ki (angiogenin (ANG); read-out: KI): 14 µM

Molecule: Nc1ccc2cc(S(=O)(=O)O)cc(O)c2c1N=Nc1ccc(-c2ccc(N=Nc3cc(S(=O)(=O)O)c4ccccc4c3N)cc2)cc1 [direct red 13]
Ki (angiogenin (ANG); read-out: KI): 112 µM

Molecule: O=S(=O)(O)c1cc(S(=O)(=O)O)c2c(/N=N/c3ccc(S(=O)(=O)O)c4ccccc34)c(O)ccc2c1 [new coccine]
Ki (angiogenin (ANG); read-out: KI): 69 µM

Molecule: Cc1cc(-c2ccc(/N=N/c3c(N)ccc4cc(S(=O)(=O)O)ccc34)c(C)c2)ccc1N [prBZBP]
Ki (angiogenin (ANG); read-out: KI): 20 µM

Molecule: O=S(=O)(O)c1ccc(/N=N/c2c(O)ccc3cc(S(=O)(=O)O)ccc23)cc1 [sunset yellow]
Ki (angiogenin (ANG); read-out: KI): 85 µM

Molecule: Cc1ccc(C(=O)Nc2ccc(S(=O)(=O)O)c3cc(S(=O)(=O)O)cc(S(=O)(=O)O)c23)cc1NC(=O)c1cccc(NC(=O)Nc2cccc(C(=O)Nc3cc(C(=O)Nc4ccc(S(=O)(=O)O)c5cc(S(=O)(=O)O)cc(S(=O)(=O)O)c45)ccc3C)c2)c1 [suramin, reference compound]
Ki (angiogenin (ANG); read-out: KI): 10 µM

Molecule: Cc1cc(S(=O)(=O)O)ccc1N=c1ccc2c(-c3ccccc3C(=O)O)c3ccc(Nc4ccccc4C)cc3oc-2c1 [violamine R]
Ki (angiogenin (ANG); read-out: KI): 107 µM

Molecule: Cc1ccc(/N=N/c2c(O)c(S(=O)(=O)O)cc3cc(S(=O)(=O)O)ccc23)c(C)c1 [xylidene ponceau 2R]
Ki (angiogenin (ANG)): 49 µM

Molecule: Benzopurpurin B
Ki (angiogenin (ANG); [3]): 5 µM
Ki (angiogenin (ANG); [4]): 5 µM
Protection of total RNA from degradation (E. coli RNase I): significant protection from RNA degradation

Molecule: cefsulodin [reference compound]
Ki (angiogenin (ANG); [4]): 201 µM

Molecule: eriochrome black T
Ki (angiogenin (ANG); [4]): 50 µM

Further lines, results first:

Ki (angiogenin (ANG); [3]): 20 µM
Tighter binding to ANG than to RNase A [1]: 2.3 fold
Molecule: O=C(Nc1ccc(Cc2ccc(NC(=O)c3ccc(-c4ccccc4)cc3)c(C(=O)O)c2)cc1C(=O)O)c1ccc(-c2ccccc2)cc1 [CB-473872]

Ki (angiogenin (ANG); read-out: KI): > 500 µM
Molecule: Nc1ccc2cc(S(=O)(=O)O)cc(O)c2c1N=Nc1ccccc1S(=O)(=O)c1ccccc1 [S321443]
